These results are taken from ChEMBL document CHEMBL6127111, “First-in-Class Small Molecule Degrader of Pregnane X Receptor Enhances Chemotherapy Efficacy” (J Med Chem, 2024).

Experiment [1] is described as follows: Cytotoxicity against human SNU-C4 HiBiT-PXR KI cell assessed as cell viability incubated for 72 hrs by celltiter-glo luminescent assay. It is filed as functional. (In general: The HiBiT peptide binds its large partner to form an active luciferase.)
Experiment [2] addresses von Hippel-Lindau disease tumor suppressor/Nuclear receptor subfamily 1 group I member 2 (Homo sapiens, UniProt O75469+P40337). In words: PROTAC activity at N-terminal PXR/VHL in human SNU-C4 HiBiT-PXR KI cell assessed as reduction in PXR protein level incubated for 24 hrs by Western blot analysis. In kind it is cell-based.
Experiment [3] can be described thus: Cytotoxicity against human SNU-C4 HiBiT-PXR KI cell assessed as cell viability incubated for 24 hrs by celltiter-glo luminescent assay. It is filed as functional.
Experiment [4] is described as follows: Cytotoxicity against human SNU-C4 HiBiT-PXR KI cell assessed as cell viability at 30 uM incubated for 72 hrs by celltiter-glo luminescent assay relative to control. It is filed as functional. As to conditions: read-out: Activity.
Experiment [5] in a line: Cytotoxicity against human SNU-C4 HiBiT-PXR KI cell assessed as cell viability at 30 uM incubated for 24 hrs by celltiter-glo luminescent assay relative to control. It is filed as functional. As to conditions: read-out: Activity.

Molecules are shown by their SMILES.

Sequence of von Hippel-Lindau disease tumor suppressor/Nuclear receptor subfamily 1 group I member 2 (O75469 whole entry): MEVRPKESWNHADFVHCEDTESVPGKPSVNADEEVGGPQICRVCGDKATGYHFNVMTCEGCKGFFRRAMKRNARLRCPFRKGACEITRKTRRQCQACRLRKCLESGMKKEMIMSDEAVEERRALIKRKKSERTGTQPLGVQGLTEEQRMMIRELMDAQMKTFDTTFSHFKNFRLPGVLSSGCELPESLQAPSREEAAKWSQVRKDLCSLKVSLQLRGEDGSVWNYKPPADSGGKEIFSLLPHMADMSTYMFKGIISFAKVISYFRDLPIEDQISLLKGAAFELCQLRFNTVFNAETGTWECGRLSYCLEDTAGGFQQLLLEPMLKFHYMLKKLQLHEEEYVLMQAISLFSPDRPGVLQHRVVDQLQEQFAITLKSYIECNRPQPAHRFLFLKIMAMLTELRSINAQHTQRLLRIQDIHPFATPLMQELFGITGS
Sequence of von Hippel-Lindau disease tumor suppressor/Nuclear receptor subfamily 1 group I member 2 (P40337 whole entry): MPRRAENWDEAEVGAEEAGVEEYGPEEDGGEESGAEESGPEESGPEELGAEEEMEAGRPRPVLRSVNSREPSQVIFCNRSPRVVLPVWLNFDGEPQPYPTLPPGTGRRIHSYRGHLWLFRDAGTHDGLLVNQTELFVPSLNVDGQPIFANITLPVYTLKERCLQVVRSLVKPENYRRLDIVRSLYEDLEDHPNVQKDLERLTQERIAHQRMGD

The CC50 is the concentration that lowers cell viability or growth by half. In the case of `COc1cc(OCCCCCCOCCOCCOCCCCCC(=O)N[C@H](C(=O)N2C[C@H](O)C[C@H]2C(=O)NCc2ccc(-c3scnc3C)cc2)C(C)(C)C)c(C)cc1-n1nnc(S(=O)(=O)c2ccc(C(C)(C)C)cc2)c1C`, the CC50 in experiment [1] and in experiment [3] was over 30 µM throughout. Further, in experiment [2], the DC50 was over 30 µM.
With `CCC[C@H](CC)Oc1ccc(C(=O)NCCOCCOCCOCCOCC(=O)N[C@H](C(=O)N2C[C@H](O)C[C@H]2C(=O)NCc2ccc(-c3scnc3C)cc2)C(C)(C)C)cc1NC(=O)c1nnn(-c2cc(OC)ccc2OC)c1C`, the CC50 in experiment [1] and in experiment [3] was over 30 µM each time. In addition, the DC50 in experiment [2] is over 30 µM. Further, the values for the viability at 30 µM in experiment [4] and in experiment [5] were 84.1% and 100%, respectively.
Turning to `COc1cc(OCCCCCCCC(=O)N[C@H](C(=O)N2C[C@H](O)C[C@H]2C(=O)NCc2ccc(-c3scnc3C)cc2)C(C)(C)C)c(C)cc1-n1nnc(S(=O)(=O)c2ccc(C(C)(C)C)cc2)c1C`, the CC50 in experiment [1] and in experiment [3] was over 30 µM each time. Also, the DC50 in experiment [2] is over 30 µM.
Regarding `CCC[C@H](CC)Oc1ccc(C(C)(C)C)cc1NC(=O)c1nnn(-c2cc(C)c(OCCCCCCOCCOCC(=O)N[C@H](C(=O)N3C[C@H](O)C[C@H]3C(=O)NCc3ccc(-c4scnc4C)cc3)C(C)(C)C)cc2OC)c1C`, the CC50 in experiment [1] and in experiment [3] was over 30 µM in each case. Also, the viability at 30 µM in experiment [4] is 104%; in experiment [5], 93.9%.
As for `COc1cc(OCCCC(=O)N[C@H](C(=O)N2C[C@H](O)C[C@H]2C(=O)NCc2ccc(-c3scnc3C)cc2)C(C)(C)C)c(C)cc1-n1nnc(S(=O)(=O)c2ccc(C(C)(C)C)cc2)c1C`, the CC50 in experiment [1] and in experiment [3] was over 30 µM in each case. In addition, the DC50 in experiment [2] was over 30 µM. Further, the viability at 30 µM in experiment [4] came out at 95.4%.
For the molecule `CCC[C@H](CC)Oc1ccc(C(=O)NCCOCCOCC(=O)N[C@H](C(=O)N2C[C@H](O)C[C@H]2C(=O)NCc2ccc(-c3scnc3C)cc2)C(C)(C)C)cc1NC(=O)c1nnn(-c2cc(OC)ccc2OC)c1C`, the CC50 in experiment [1] and in experiment [3] was over 30 µM throughout. Besides, the DC50 in experiment [2] is over 30 µM. In addition, the viability at 30 µM in experiment [4] came to 89.7%; in experiment [5], 103%.
As for `COc1cc(OCCOCCOCCOCCOCCC(=O)N[C@H](C(=O)N2C[C@H](O)C[C@H]2C(=O)NCc2ccc(-c3scnc3C)cc2)C(C)(C)C)c(C)cc1-n1nnc(S(=O)(=O)c2ccc(C(C)(C)C)cc2)c1C`, the CC50 in experiment [1] and in experiment [3] was over 30 µM each time. The DC50 in experiment [2] is over 30 µM.
With `COc1cc(OCCOCCOCCOCCOCCOCCC(=O)N[C@H](C(=O)N2C[C@H](O)C[C@H]2C(=O)NCc2ccc(-c3scnc3C)cc2)C(C)(C)C)c(C)cc1-n1nnc(S(=O)(=O)c2ccc(C(C)(C)C)cc2)c1C`, the CC50 in experiment [1] and in experiment [3] was over 30 µM in each case. Besides, the DC50 in experiment [2] is over 30 µM.
For the molecule `COc1cc(OCCOCCOCCOCCC(=O)N[C@H](C(=O)N2C[C@H](O)C[C@H]2C(=O)NCc2ccc(-c3scnc3C)cc2)C(C)(C)C)c(C)cc1-n1nnc(S(=O)(=O)c2ccc(C(C)(C)C)cc2)c1C`, the CC50 in experiment [1] and in experiment [3] was over 30 µM throughout. Moreover, in experiment [2], the DC50 is over 30 µM.
Consider `COc1cc(OCCCCCCOCCCCCOCCCCCC(=O)N[C@H](C(=O)N2C[C@H](O)C[C@H]2C(=O)NCc2ccc(-c3scnc3C)cc2)C(C)(C)C)c(C)cc1-n1nnc(S(=O)(=O)c2ccc(C(C)(C)C)cc2)c1C`, for which the CC50 in experiment [1] and in experiment [3] was over 30 µM each time. For the same molecule, the viability at 30 µM in experiment [4] was found to be 94.3%.
Consider `COc1cc(OCCCCCCOCCOCCOCCOCCOCCOCC(=O)N[C@H](C(=O)N2C[C@H](O)C[C@H]2C(=O)NCc2ccc(-c3scnc3C)cc2)C(C)(C)C)c(C)cc1-n1nnc(S(=O)(=O)c2ccc(C(C)(C)C)cc2)c1C`, for which the CC50 in experiment [1] and in experiment [3] was over 30 µM throughout. The DC50 in experiment [2] is over 30 µM.
Take `COc1ccc(OC)c(-n2nnc(C(=O)Nc3cc(OCCCCCCOCCOCC(=O)N[C@H](C(=O)N4C[C@H](O)C[C@H]4C(=O)NCc4ccc(-c5scnc5C)cc4)C(C)(C)C)cc(C(C)(C)C)c3)c2C)c1`: the CC50 in experiment [1] and in experiment [3] was over 30 µM in each case. Moreover, the viability at 30 µM came out at 68.2% in experiment [4] and 83.2% in experiment [5].
Take `CCC[C@H](CC)Oc1ccc(C(C)(C)C)cc1NC(=O)c1nnn(-c2cc(C)c(OC)cc2OC)c1C`: the CC50 in experiment [1] and in experiment [3] was over 30 µM throughout. For the same molecule, in experiment [2], the DC50 is over 30 µM. Further, the viability at 30 µM came to 106% in experiment [4] and 99.3% in experiment [5].
Take `CCC[C@H](CC)Oc1ccc(C(=O)NCCCCC(=O)N[C@H](C(=O)N2C[C@H](O)C[C@H]2C(=O)NCc2ccc(-c3scnc3C)cc2)C(C)(C)C)cc1NC(=O)c1nnn(-c2cc(OC)ccc2OC)c1C`: the CC50 in experiment [1] and in experiment [3] was over 30 µM in each case. For the same molecule, the DC50 in experiment [2] was over 30 µM. Besides, the figures for the viability at 30 µM in experiment [4] and in experiment [5] were 98.9% and 101%, respectively.
`CCCCOc1ccc(C(C)(C)C)cc1NC(=O)c1nnn(-c2cc(C)c(OCCCCCCOCCOCC(=O)N[C@H](C(=O)N3C[C@H](O)C[C@H]3C(=O)NCc3ccc(-c4scnc4C)cc3)C(C)(C)C)cc2OC)c1C`: the CC50 in experiment [1] and in experiment [3] was over 30 µM throughout. For the same molecule, the viability at 30 µM came out at 91.2% in experiment [4] and 96.7% in experiment [5].
Regarding `COc1cc(OCCCCCCOCCOCC(=O)N[C@H](C(=O)N2C[C@H](O)C[C@H]2C(=O)NCc2ccc(-c3scnc3C)cc2)C(C)(C)C)c(C)cc1-n1nnc(S(=O)(=O)c2ccc(C(C)(C)C)cc2)c1C`, the CC50 in experiment [1] and in experiment [3] was over 30 µM throughout.
For `COc1cc(OCCOCCOCCC(=O)N[C@H](C(=O)N2C[C@H](O)C[C@H]2C(=O)NCc2ccc(-c3scnc3C)cc2)C(C)(C)C)c(C)cc1-n1nnc(S(=O)(=O)c2ccc(C(C)(C)C)cc2)c1C`, the CC50 in experiment [1] and in experiment [3] was over 30 µM throughout. For the same molecule, the DC50 in experiment [2] was over 30 µM. In addition, in experiment [4], the viability at 30 µM came out at 98.9%.
Take `COc1cc(OCCOCCC(=O)N[C@H](C(=O)N2C[C@H](O)C[C@H]2C(=O)NCc2ccc(-c3scnc3C)cc2)C(C)(C)C)c(C)cc1-n1nnc(S(=O)(=O)c2ccc(C(C)(C)C)cc2)c1C`: the CC50 in experiment [1] and in experiment [3] was over 30 µM each time. Moreover, the DC50 in experiment [2] was over 30 µM.
With `CC(=O)N[C@H](C(=O)N1C[C@H](O)C[C@H]1C(=O)NCc1ccc(-c2scnc2C)cc1)C(C)(C)C`, the CC50 in experiment [1] and in experiment [3] was over 30 µM each time. The viability at 30 µM in experiment [4] came to 93%; in experiment [5], 99.6%.
With `COc1cc(OCC(=O)N[C@H](C(=O)N2C[C@H](O)C[C@H]2C(=O)NCc2ccc(-c3scnc3C)cc2)C(C)(C)C)c(C)cc1-n1nnc(S(=O)(=O)c2ccc(C(C)(C)C)cc2)c1C`, the cytotoxic concentration (CC50) in experiment [1] and in experiment [3] was over 30 µM in each case. In addition, in experiment [2], the DC50 was over 30 µM.
As to `COc1cc(OCC(=O)NCCOCCOCCOCCOCC(=O)N[C@H](C(=O)N2C[C@H](O)C[C@H]2C(=O)NCc2ccc(-c3scnc3C)cc2)C(C)(C)C)c(C)cc1-n1nnc(S(=O)(=O)c2ccc(C(C)(C)C)cc2)c1C`, the CC50 in experiment [1] and in experiment [3] was over 30 µM throughout. In experiment [2], the DC50 was over 30 µM.
